Where “and” joins values, the source holds several entries; their conditions need not be identical. Equal values may be shown once.
How the values were obtained:
[1] = system: human skin fibroblasts (hSF); assay: Collagen secretion from human skin fibroblasts (Biocolor Sircol collagen assay); assay type: cell-based; settings: for Collagen Abs / Collagen/cell / Coll/cell % change: 8 days
Method: LEX 42 and different concentrations of retinoic acid (0.01M and 0.1M) are applied to fibroblasts (HsF cells) in vitro and collagen production and secretion is measured. Briefly, on day 0, fibroblasts are seeded in 25 cm^2 cell culture flasks at a density of 2.8×10^5 cells per flask. On day 1, the culture media is replaced with fresh culture media supplemented with 0.5% LEX, 0.01M RA, or 0.1M RA. Control cells are grown with cell culture medium without LEX or RA. The cultures are continued for seven days, with a media (LEX/RA/control) change at day 4. On day 8, the cells are washed 3× with PBS before adding cell culture medium with low serum (1% FBS). On day 9, the culture medium (1.4 ml) is harvested and collagen content assessed using a collagen kit (Biocolor, on eht world wide web at biocolor.co.uk/index.php/assay-kits/sircol-1/). The absorbance is measured with Nanodrop 2000c (Thermo).
LEX 51 was applied to fibroblasts (HsF cells) in vitro, and collagen production and secretion was assayed. The procedure was as described above, except with the modification of the assay on day 10, were 2 ml of the culture medium is harvested and collagen content assessed using a collagen kit (Biocolor, biocolor.co.uk/index.php/assay-kits/sircol-1/), with the adaptation of isolating collagen from 2 ml of culture medium compared to 1 ml as described in the kit manual. The absorbance is measured at 550 nm (the base line was set to 750 nm) with the Nanodrop 2000 (Thermo)
Collagen assay from Biocolor was used to analyze the effect of LEX on hSF (fibroblast). This assay measures the produced and secreted collagen from hSF (fibroblasts). The measurements from un-stimulated control was compared to LEX stimulated hSF (fibroblasts) and noted as fold induction.
The level of collagen was measured after 8 days of treatment with 0% or 0.5% reconstituted freeze dried salmon egg extract I in complete growth medium supplemented with 10% FBS. Ascorbic acid (1 μg/ml) and 0.5% salmon egg extract I was used as positive controls.

[2] = system: human skin fibroblasts (hSF); assay: Proliferation / cell number of human skin fibroblasts; assay type: cell-based; design: increase in cell number: unit not given here; settings: 8 days; for Cell % change: vs control

In the case of CC1=C(/C=C/C(C)=C/C=C/C(C)=C/C(=O)O)C(C)(C)CCC1 [RA, retinoic acid], the “Collagen Abs” value ([1]; 0.01 μM RA) is reported as 0.046, the Collagen/cell ([1]; 0.01 μM RA) is reported as 4.7925E−08 and the Coll/cell % change ([1]; 0.01 μM RA, vs control) is reported as −16.5%. The “Collagen Abs” value ([1]; 0.1 μM RA) was 0.046, the Collagen/cell ([1]; 0.1 μM RA) was 5.077E−08 and the Coll/cell % change ([1]; 0.1 μM RA, vs control) was −11.5%. The “decrease of collagen per cell” value ([1]; 0.1 μM RA, vs control) was 11.5%, the “decrease of collagen produced per cell” value ([1]; 0.01M RA, vs control) was 16.5% and the “fold change of collagen produced per cell compared to control cultures” value ([1]; RA cultures (0.01M and 0.1M), eight days) was 0.84 and 0.89. For the same compound, the “final # of cells” value ([2]; 0.01 μM RA) was 959833, the Cell % change ([2]; 0.01 μM RA) was 10.1% and the “final # of cells” value ([2]; 0.1 μM RA) was 906000. The Cell % change ([2]; 0.1 μM RA) was 3.9%, the “increase in cell number” value ([2]; 0.01M RA) was 3.99 and the “increase in cell number compared to control” value ([2]; 0.1M RA) was 10%.

From patent US11007385B2, “Use of cellular extracts for skin rejuvenation” (Regenics AS, priority 2012, dated 2021)
